# Measurements as given in patent US9296698B2, “Amino heteroaryl compounds as beta-secretase modulators and methods of use” (Amgen Inc., priority 2009, dated 2016).
# Like-named read-outs stand apart in the source and are kept apart here.
# Experiments:
# [1] = molecular target: BACE 1 (Beta Secretase enzyme) (Homo sapiens, UniProt P56817); test: In vitro enzymatic BACE FRET assay; assay type: biochemical
# Method in brief: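 BACE activity read by FRET: peptide substrate (50 nM) carrying fluorophore and quencher across the cleavage site, incubated one hour in 0.05 M acetate pH 4.2, 10% DMSO final, 100 uM genapol. Tris addition raises pH to neutrality to stop the reaction before fluorescence is read.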
# [2] = tested on: Aβ40 in conditioned medium of cells stably expressing Amyloid Precursor Protein (APP); test: In vitro BACE cell-based assay (HEK cell assay), Aβ40 sandwich ELISA
# Method in brief: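 Cells stably expressing APP received 10-point compound dilutions (top 100 μM or 10 μM; 0.1% DMSO) for 24 h. Secreted Aβ40 was quantified by sandwich ELISA (pAb40 capture, biotinylated 6E10 detection, europium time-resolved fluorescence). IC50 was derived from percent inhibition versus concentration.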
# [3] = IC50 range symbols, Table 1, read-out: BACE 1 FRET assay
# [4] = IC50 range symbols, Table 1, Aβ40, 24 h incubation, read-out: HEK cell assay
# [5] = Homo sapiens, HEK293, 24 h, IC50 range symbols, Table 1, Aβ40, 24 h incubation, read-out: HEK cell assay
# [6] = bound stated, read-out: IC50 value in the FRET BACE enzyme assay
# Chain of BACE 1 (Beta Secretase enzyme) (P56817 46-501, species assumed): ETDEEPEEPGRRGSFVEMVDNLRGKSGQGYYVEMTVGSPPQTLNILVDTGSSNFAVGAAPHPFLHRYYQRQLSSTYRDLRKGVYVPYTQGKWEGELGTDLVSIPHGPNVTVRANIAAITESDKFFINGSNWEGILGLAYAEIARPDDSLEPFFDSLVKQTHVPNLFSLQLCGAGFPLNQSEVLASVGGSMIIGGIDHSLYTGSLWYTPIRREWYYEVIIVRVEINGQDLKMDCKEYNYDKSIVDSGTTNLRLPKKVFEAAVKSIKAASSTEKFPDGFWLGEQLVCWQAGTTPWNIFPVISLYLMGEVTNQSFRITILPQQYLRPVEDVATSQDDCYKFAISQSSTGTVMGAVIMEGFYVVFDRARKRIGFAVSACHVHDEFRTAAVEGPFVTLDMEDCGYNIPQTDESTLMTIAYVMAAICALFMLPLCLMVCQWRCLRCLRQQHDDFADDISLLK
Molecule,"IC50 [1, 3]","IC50 [2, 4]","IC50 [2, 5]","IC50 [1, 6]","IC50 ([2]; Homo sapiens, HEK293, bound stated in text, read-out: IC50 value in the BACE cell-based in-vitro assay)"
"Cc1ccccc1-c1ccc2nc(N)c(CC(C)C(=O)N[C@H](C)c3ccccc3OC(F)F)cc2c1 (stereo partly drawn) [Example 130, 3-(2-amino-6-o-tolylquinolin-3-yl)-N-((R)-1-(2-(difluoromethoxy)phenyl)ethyl)-2-methylpropanamide]",< 500 nM,1000 to 5000 nM,–,–,–
"3-(2-amino-6-(2-methyl-6-(1-pyrrolidinylcarbonyl)phenyl)-3-quinolinyl)-N-(2,2-dimethyltetrahydro-2H-pyran-4-yl)-2-methylpropanamide [Example 145]",< 500 nM,< 500 nM,–,–,–
"Cc1ccccc1-c1ccc2nc(N)c(C[C@@H](C)C(=O)NC3CCCC(C)(C)C3)cc2c1 (stereo partly drawn) [Example 162, (2R)-3-(2-amino-6-(2-methylphenyl)-3-quinolinyl)-N-(3,3-dimethylcyclohexyl)-2-methylpropanamide]",< 500 nM,–,< 500 nM,–,–
N-(2-fluorobenzyl)-3-(3-amino-7-o-tolylnaphthalen-2-yl)propanamide [Example 27],< 500 nM,1000 to 5000 nM,–,–,–
"Cc1ccc(NC(=O)CCc2cc3cc(-c4ccccc4C)ccc3nc2N)c(F)c1 [Example 53, 3-(2-amino-6-o-tolylquinolin-3-yl)-N-(2-fluoro-4-methylphenyl)propanamide]",1000 to 5000 nM,–,1000 to 5000 nM,–,–
"CNC(=O)[C@H](C)Cc1cc2cc(-c3c(C)cccc3C(=O)N3CCCC3)ccc2nc1N [Example 9, (R)-3-(2-amino-6-(2-methyl-6-(pyrrolidine-1-carbonyl)phenyl)quinolin-3-yl)-N,2-dimethylpropanamide]",< 500 nM,–,< 500 nM,< 50 nM,< 100 nM
"CCC1CCN1C(=O)C(C)Cc1cc2cc(-c3ncccc3C)ccc2nc1N (stereo not shown) [Example 118, 3-(2-amino-6-(3-methylpyridin-2-yl)quinolin-3-yl)-1-(2-ethylazetidin-1-yl)-2-methylpropan-1-one]",> 5000 nM,–,> 5000 nM,–,–
"Cc1ccccc1-c1ccc2nc(N)c(CCC(=O)N[C@H](C)c3cccnc3)cc2c1 [Example 131, (R)-3-(2-amino-6-o-tolylquinolin-3-yl)-N-(1-(pyridin-3-yl)ethyl)propanamide]",< 500 nM,1000 to 5000 nM,–,–,–
3-(3-amino-7-o-tolylnaphthalen-2-yl)-N-(2-methoxybutyl)propanamide [Example 26],< 500 nM,1000 to 5000 nM,–,–,–
"CO[C@@H]1CCC[C@H]1NC(=O)CCc1cc2cc(-c3ccccc3C)ccc2nc1N [Example 62, 3-(2-amino-6-o-tolylquinolin-3-yl)-N-((1R,2R)-2-methoxycyclopentyl)propanamide]",< 500 nM,–,1000 to 5000 nM,–,–
"Cc1ccccc1-c1ccc2nc(N)c(CCC(=O)NCc3ccccc3)cc2c1 [Example 23, 3-(2-amino-6-o-tolylquinolin-3-yl)-N-benzylpropanamide]",< 500 nM,–,< 500 nM,–,–
"Cc1cccnc1-c1cc2cc(CC(C)C(=O)NCC3CCOCC3)c(N)nc2cc1F (stereo not shown) [Example 97, 3-(2-amino-7-fluoro-6-(3-methyl-2-pyridinyl)-3-quinolinyl)-2-methyl-N-(tetrahydro-2H-pyran-4-ylmethyl)propanamide]",< 500 nM,–,1000 to 5000 nM,–,–
"Cc1ccccc1-c1ccc2nc(N)c(CCC(=O)NCC(C)(C)C)cc2c1 [Example 21, 3-(2-amino-6-o-tolylquinolin-3-yl)-N-neopentylpropanamide]",< 500 nM,–,> 5000 nM,–,–
"Cc1ccccc1-c1ccc2nc(N)c(CCC(=O)NCC3CCCO3)cc2c1 (stereo not shown) [Example 17, 3-(2-amino-6-o-tolylquinolin-3-yl)-N-((tetrahydrofuran-2-yl)methyl)propanamide]",< 500 nM,–,> 5000 nM,–,–
"Cc1ccccc1-c1ccc2nc(N)c(CCC(=O)NCc3ncco3)cc2c1 [Example 67, 3-(2-amino-6-o-tolylquinolin-3-yl)-N-(oxazol-2-ylmethyl)propanamide]",< 500 nM,–,1000 to 5000 nM,–,–
3-(2-amino-6-o-tolylquinolin-3-yl)-N-(tetrahydro-2H-pyran-4-yl)propanamide [Example 16],1000 to 5000 nM,1000 to 5000 nM,–,–,–
3-(3-amino-7-o-tolylnaphthalen-2-yl)-N-((S)-1-cyclohexylethyl)propanamide [Example 35],< 500 nM,> 5000 nM,–,–,–
"Cc1cccnc1-c1ccc2nc(N)c(CC(C)C(=O)N[C@H](C)C(F)(F)F)cc2c1 (stereo partly drawn) [Example 114, 3-(2-amino-6-(3-methylpyridin-2-yl)quinolin-3-yl)-2-methyl-N-((R)-1,1,1-trifluoropropan-2-yl)propanamide]",1000 to 5000 nM,–,1000 to 5000 nM,–,–
"Cc1ccccc1-c1ccc2nc(N)c(CC(C)C(=O)NC(C)c3ccccc3F)cc2c1 (stereo not shown) [Example 106, 3-(2-amino-6-o-tolylquinolin-3-yl)-N-(1-(2-fluorophenyl)ethyl)-2-methylpropanamide]",< 500 nM,–,> 5000 nM,< 50 nM,–
"CC(Cc1cc2cc(-c3ccc(F)cc3)ccc2nc1N)C(=O)NC1CCOC(C)(C)C1 (stereo not shown) [Example 167, 3-(2-amino-6-(4-fluorophenyl)-3-quinolinyl)-N-(2,2-dimethyltetrahydro-2H-pyran-4-yl)-2-methylpropanamide]",1000 to 5000 nM,–,> 5000 nM,–,–
"COc1ccccc1-c1ccc2nc(N)c(CCC(=O)NCC3CCCCC3)cc2c1 [Example 44, 3-(2-amino-6-(2-methoxyphenyl)quinolin-3-yl)-N-(cyclohexylmethyl)propanamide]",< 500 nM,–,1000 to 5000 nM,–,–
"Cc1cccnc1-c1ccc2nc(N)c(CC(C)C(=O)NCCC(F)(F)F)cc2c1 (stereo not shown) [Example 112, 3-(2-amino-6-(3-methylpyridin-2-yl)quinolin-3-yl)-2-methyl-N-(3,3,3-trifluoropropyl)propanamide]",< 500 nM,–,500 to 1000 nM,–,–
3-(3-amino-7-o-tolylnaphthalen-2-yl)-N-(2-fluorophenyl)propanamide [Example 28],500 to 1000 nM,1000 to 5000 nM,–,–,–
